Read-outs that look alike come from different tables or passages of the source.
What was measured:
[1] = system: S. epidermidis S2400-1 biofilm; assay: Biofilm prevention, BisEDT-antibiotic combinations; format: cell-based, Staphylococcus epidermidis; conditions: for Δ (0.05 BE), biofilm prevention: 0.05 μg/ml BisEDT
Experimental: (§1) S. epidermidis grown in TSB+2% glucose in polystyrene plates for 48 h at 37° C. Gatifloxacin (GF), clindamycin (CM), minocycline (MC), gentamicin (GM), vancomycin (VM), cefazolin (CZ), nafcillin (NC), and rifampicin (RP). […]

S. epidermidis biofilm = assay: Biofilm prevention concentration (BPC), BisEDT and antibiotics; format: cell-based, Staphylococcus epidermidis; conditions: for Fold reduction of BPC in presence of subMIC BisEDT: TSB + 2% glucose, 48 h
Experimental: as §1

S. epidermidis = assay: Broth dilution MIC/MBC, BT-antibiotic combinations; format: cell-based, Staphylococcus epidermidis; conditions: for Δ, MIC / Δ (0.05 BE), MIC: 0.05 μg/ml BisEDT; for Δ (0.1 BE), MBC: 0.1 μg/ml BisEDT
Experimental: Materials & Methods. Susceptibility studies were performed by broth dilution in 96-well tissue culture plates (Nalge Nunc International, Denmark) in accordance with NCCLS protocols (National Committee for Clinical Laboratory Standards. (1997). Methods for Dilution Antimicrobial Susceptibility Tests for Bacteria that Grow Aerobically: Approved Standard M7-A2 and Informational Supplement M100-S10. NCCLS, Wayne, Pa., USA).
Briefly, overnight bacterial cultures were used to prepare 0.5 McFarland standard suspensions, which were further diluted 1:50 (˜2×10^6 cfu/mL) in cation-adjusted Mueller-Hinton broth medium (BBL, Cockeysville, Md., USA). BTs (prepared as described above) and antibiotics were added at incremental concentrations, keeping the final volume constant at 0.2 mL. Cultures were incubated for 24 h at 37° C. and turbidity was assessed by absorption at 630 nm using an ELISA plate reader (Biotek Instruments, Winooski, Vt., USA) according to the manufacturer's recommendations. […] Viable bacterial counts (cfu/mL) were determined by standard plating on nutrient agar.
The checkerboard method was used to assess the activity of antimicrobial combinations. The fractional inhibitory concentration index (FICI) and the fractional bactericidal concentration index (FBCI) were calculated, according to Eliopoulos et al. (Eliopoulos and Moellering, (1996) Antimicrobial combinations. In Antibiotics in Laboratory Medicine (Lorian, V., Ed.), pp. 330-96, Williams and Wilkins, Baltimore, Md., USA). Synergy was defined as an FICI or FBCI index of […], no interaction at >0.5-4 and antagonism at >4 (Odds, F C (2003) Synergy, antagonism, and what the chequerboard puts between them. Journal of Antimicrobial Chemotherapy 52:1). Synergy was also defined conventionally as ≧4-fold decrease in antibiotic concentration.

[2] = system: MRSA clinical isolates biofilm; assay: Biofilm-prevention concentration (BPC) in BHIG/X medium with subMIC BisEDT; format: cell-based, Staphylococcus aureus; conditions: 12 MRSA clinical isolates, mean ± SD
Experimental: (§2) Broth dilution antimicrobial susceptibility studies were performed against 12 MRSA strains using several antibiotics combined with subMIC levels of BisEDT (Table 18). Both the biofilm-prevention concentration (BPC) and the minimum inhibitory concentration (MIC) were determined in a special biofilm culture medium (BHIG/X). […] These strains were already sensitive to vancomycin, but were made considerably moreso in the presence of subMIC BisEDT.

MRSA clinical isolates [3] = conditions: cited from earlier work; for MIC Standards, R (resistance): Standard MIC breakpoint for resistance; for MIC Standards, S (antibiotic sensitivity): Standard MIC breakpoint for sensitivity
MRSA clinical isolates [4] = assay: Broth dilution MIC in BHIG/X medium with subMIC BisEDT; format: cell-based, Staphylococcus aureus; conditions: Staphylococcus aureus, MRSA, 12 MRSA clinical isolates, BHIG/X, mean ± SD
Experimental: as §2
In this particular study, the data indicated synergy between BisEDT and cefepime (FIC<0.5), with many of the isolates at the breakpoint for sensitivity.

Bukholderia multivorans = assay: Single-point BisEDT-antibiotic combination FICI; format: cell-based; conditions: Bmult 5665
[5] = system: Streptococcus pneumoniae (SP, PRSP); assay: Single-point BisEDT-antibiotic combination FICI; conditions: PRSP 5348
[6] = system: Staphylococcus aureus (SA, MRSA); assay: Single-point BisEDT-antibiotic combination FICI; format: cell-based
Escherichia coli = assay: Single-point BisEDT-antibiotic combination FICI; format: cell-based
Klebsiella pneumoniae = assay: Single-point BisEDT-antibiotic combination FICI; format: cell-based; conditions: KP 1231
Pseudomonas aeruginosa = assay: Single-point BisEDT-antibiotic combination FICI; format: cell-based; conditions: PA 1380
Enterococcus faecalis = assay: Single-point BisEDT-antibiotic combination FICI; format: cell-based; conditions: E Fc 3121
Acinetobacter baumanii = assay: Single-point BisEDT-antibiotic combination FICI; format: cell-based; conditions: Abau 2594
Burkholderia cepacia = assay: Single-point BisEDT-antibiotic combination FICI; format: cell-based; conditions: Bcep 1756
[7] = system: lawn of MRSA (Methicillin-resistant S. aureus); assay: Antibiotic-soaked discs on bacterial lawn with and without BisEDT; format: cell-based, Staphylococcus aureus; conditions: antibiotic discs combined with BisEDT 0.05 μg/ml
Experimental: FIGS. 4A and 4B show the subinhibitory BisEDT reversing antibiotic-resistance to several antibiotics. Effects of antibiotics with and without BisEDT (0.05 μg/ml) on a lawn of MRSA (Methicillin-resistant S. aureus) is shown. […] [GM=gentamicin, CZ=cefazolin, FEP=cefepime, IPM=imipenim, SAM=ampicillin/sulbactam, LVX=levofloxacin.

[8] = S. epidermidis ATCC 35984, BisEDT 0.0 μg/ml
[9] = S. epidermidis ATCC 35984, BisEDT 0.05 μg/ml
[10] = S. epidermidis S2400-1, BisEDT 0 μg/ml
[11] = S. epidermidis S2400-1, BisEDT 0.0 μg/ml
[12] = S. epidermidis S2400-1, BisEDT 0.05 μg/ml
[13] = S. epidermidis S2400-1, BisEDT 0.1 μg/ml

Structure (SMILES)	Δ (0.05 BE), biofilm prevention [1]	Biofilm Prevention (antibiotic concentration) ([1]; BisEDT 0 μg/ml) [µg/mL]	Biofilm Prevention (antibiotic concentration) ([1]; BisEDT 0.05 μg/ml) [µg/mL]	Biofilm Prevention (antibiotic concentration) ([1]; BisEDT 0.1 μg/ml) [µg/mL]	Fold reduction of BPC in presence of subMIC BisEDT (S. epidermidis biofilm) [fold]	Δ, MIC (S. epidermidis; S. epidermidis ATCC 35984)	MIC (S. epidermidis; [8]) [µg/mL]	MIC (S. epidermidis; [9]) [µg/mL]	Δ (0.05 BE), MIC (S. epidermidis; S. epidermidis S2400-1)	Δ (0.1 BE), MBC (S. epidermidis; S. epidermidis S2400-1)	MIC (S. epidermidis; [10]) [µg/mL]	MBC (S. epidermidis; [11]) [µg/mL]	MIC (S. epidermidis; [12]) [µg/mL]	MBC (S. epidermidis; [13]) [µg/mL]	MIC (S. epidermidis; [13]) [µg/mL]	BPC ([2]; BisEDT 0 μg/mL) [µg/mL]	BPC ([2]; BisEDT 0.025 μg/mL) [µg/mL]	BPC ([2]; BisEDT 0.05 μg/mL) [µg/mL]	BPC ([2]; BisEDT 0.1 μg/mL) [µg/mL]	MIC Standards, R (resistance) (MRSA clinical isolates [3])	other results
CCC[C@@H]1C[C@@H](C(=O)N[C@@H]([C@H]2O[C@H](SC)[C@H](O)[C@@H](O)[C@H]2O)[C@H](C)Cl)N(C)C1 [Clindamycin, clindamycin]	24.9	1195	48	12	50	2	2048.00	1024.00	2.67	2.67	2048	2048	768	768	24						
COc1c(N2CCNC(C)C2)c(F)cc2c(=O)c(C(=O)O)cn(C3CC3)c12 (centres unmarked) [Gatifloxacin, gatifloxacin]	16.0	1.6	0.1	0.1	10				2.13	2.00	1.7	2.8	0.8	1.4	0.3	3.6 ± 2.6	2.6 ± 0.9	2.4 ± 1.1	0.9 ± 0.8	≧8 μg/ml	MIC Standards, S (antibiotic sensitivity) (MRSA clinical isolates [3]): ≦2 μg/ml; MIC (MRSA clinical isolates [4]; BisEDT 0 μg/mL, read-out: MIC): 3.6 ± 2.6 µg/mL; MIC (MRSA clinical isolates [4]; BisEDT 0.025 μg/mL, read-out: MIC): 4 ± 2.8 µg/mL; MIC (MRSA clinical isolates [4]; BisEDT 0.05 μg/mL, read-out: MIC): 4 ± 2.8 µg/mL; MIC (MRSA clinical isolates [4]; BisEDT 0.1 μg/mL, read-out: MIC): 2.4 ± 1.1 µg/mL
CN(C)c1ccc(O)c2c1C[C@H]1C[C@H]3[C@H](N(C)C)C(O)=C(C(N)=O)C(=O)[C@@]3(O)C(O)=C1C2=O [Minocycline, minocycline]	1.2	0.85	0.73	0.08		3.3	0.13	0.04	2.63	1.00	1.13	1.20	0.43	1.20	0.10						FICI, single-point BisEDT-antibiotic combination (Bukholderia multivorans): 1.12; FICI, single-point BisEDT-antibiotic combination [5]: 0.46; FICI, single-point BisEDT-antibiotic combination ([6]; MRSA 773): 1.23; FICI, single-point BisEDT-antibiotic combination ([6]; SA 100): 1.09; FICI, single-point BisEDT-antibiotic combination (Escherichia coli; EC 102): 1.37; FICI, single-point BisEDT-antibiotic combination (Escherichia coli; EC 2232): 1.04; FICI, single-point BisEDT-antibiotic combination (Klebsiella pneumoniae): 1.29; FICI, single-point BisEDT-antibiotic combination (Pseudomonas aeruginosa): 0.99; FICI, single-point BisEDT-antibiotic combination (Enterococcus faecalis): 1.11; FICI, single-point BisEDT-antibiotic combination (Acinetobacter baumanii): 1.29; FICI, single-point BisEDT-antibiotic combination (Burkholderia cepacia): 2.23
CN[C@H](CC(C)C)C(=O)N[C@H]1C(=O)N[C@@H](CC(N)=O)C(=O)N[C@H]2C(=O)N[C@H]3C(=O)N[C@H](C(=O)N[C@H](C(=O)O)c4cc(O)cc(O)c4-c4cc3ccc4O)[C@H](O)c3ccc(c(Cl)c3)Oc3cc2cc(c3O[C@@H]2O[C@H](CO)[C@@H](O)[C@H](O)[C@H]2O[C@H]2C[C@](C)(N)[C@H](O)[C@H](C)O2)Oc2ccc(cc2Cl)[C@H]1O [Vancomycin, vancomycin]	3.6	3.2	0.9	0.1					1.40	3.86	3.2	5.4	2.3	1.4	0.3	2.5 ± 1.7	1.5 ± 0.6	1.3 ± 0.5	0.7 ± 0.4	≧32 μg/ml	Change of biofilm prevention concentration (BPC) (S. epidermidis biofilm; 0.05 μg/ml BisEDT): modest decreases; Synergy, MBC (S. epidermidis; S. epidermidis S2400-1): borderline; MIC Standards, S (antibiotic sensitivity) (MRSA clinical isolates [3]): ≦4 μg/ml; MIC (MRSA clinical isolates [4]; BisEDT 0 μg/mL): 2.5 ± 1.7 µg/mL; MIC (MRSA clinical isolates [4]; BisEDT 0.025 μg/mL): 2.5 ± 1.7 µg/mL; MIC (MRSA clinical isolates [4]; BisEDT 0.05 μg/mL): 1.5 ± 0.6 µg/mL; MIC (MRSA clinical isolates [4]; BisEDT 0.1 μg/mL): 1.3 ± 0.5 µg/mL
Cc1cc(NS(=O)(=O)c2ccc(N)cc2)no1 [sulphamethoxazole]																					Antibiotic action on MRSA lawn with subMIC BisEDT [7]: enhanced antibiotic action
